Laboratory results as given in patent US20240108610A1, “RECTAL ADMINISTRATION OF ROFLUMILAST FOR THE TREATMENT OF CROHN'S DISEASE” (King Abdulaziz University, priority 2022, published 2024).

Assays:
[1] = oral; cited from earlier work
[2] = oral; cited from earlier work; remark: listed apart in the source
[3] = test system: ovalbumin-induced asthmatic mice; settings: inhaled; cited from earlier work
[4] = test system: dextran sulphate sodium (DSS)-induced colitis; settings: oral, 1 or 5 mg·kg−1·day−1, mice; cited from earlier work
[5] = test system: DSS-induced ulcerative colitis; settings: 5 mg/kg, male Wistar rats, cited from earlier work
[6] = test system: TNBS-induced reduction in colon length; settings: 1 and 5 mg-kg−1·day−1; another study (13); cited from earlier work
GSH = test: Colonic GSH in colonic tissue homogenates, TNBS-induced colitis; assay type: in vivo, rat; settings: oral, once daily for 15 days; SS 500 mg/kg, OR 5 mg/kg; means±SE, n = 8
Experimental: Chronic colitis was induced by weekly rectal injections of increasing doses of TNBS over 6 weeks (15, 30, 45, 60, 60, and 60 mg from day 0 to day 35), as previously described (4,12). Briefly, after food deprivation for 24 h, rats were anesthetized with an intraperitoneal injection of 1% isoflurane. TNBS was dissolved in ethanol (50%) and instilled into the colon using a cannula (0.25 mL), and then the rats were held upside down for 3 min to prevent escape of the intracolonic TNBS. Roflumilast was dissolved in dimethyl sulfoxide and diluted in 0.5% carboxymethyl cellulose sodium to a final concentration of 5.0 mg·kg^−1·day^−1 as previously described (13). Five groups of rats (n=8) were established: normal control (NC group), TNBS-treated (TNBS group, positive control), and three TNBS-treated groups that received oral sulfasalazine (SS group, 500 mg/kg) (14), oral roflumilast (by gastric gavage, OR group, 5 mg/kg), or rectal roflumilast (RR group, 5 mg/kg). […] At the end of the treatment period, the rats were evaluated with the colitis activity score. […] At the end of the 15-day treatment period, the rats were sacrificed by cervical dislocation, and the colon was isolated, cleaned of feces, and measured for weight and length. Colonic myeloperoxidase (MPO) activity and glutathione (GSH) and malonaldehyde (MDA) levels were measured. […]

In the case of `O=C(Nc1c(Cl)cncc1Cl)c1ccc(OC(F)F)c(OCC2CC2)c1` [roflumilast], the bioavailability [1] is listed as about 80%, the side effects [2] is listed as “weight loss, headache, nausea, emesis, and diarrhea” and the “inflammation and histopathological changes” value [3] is listed as “substantially improved”. The “numbers of neutrophils, eosinophils, and macrophages in the bronchoalveolar lavage fluid” value [3] was “decreased”, the Colonic length [4] was “dose-dependently improved” and the “colonic TNF-α production” value [4] was “dose-dependently improved”. For the same molecule, the “disease clinical score (weight loss, stool consistency, and hemorrhage)” value [4] was “dose-dependently improved”, the histological score [4] was “not improved” and the colon length ([5]; compared with the DSS group) was “preserved”. For the same molecule, the histological scores ([5]; compared with the DSS group) was “improved”, the severity of colitis ([5]; compared with the DSS group) was “diminished” and the weight loss ([5]; compared with the DSS group) was “decreased”. The “colon concentrations of TNF-α and NO, MPO activity, and inducible nitric oxide synthase gene expression” value [5] was “decreased”, the “TNBS-induced reduction in colon length” value [6] was “partially reverses” and the “elevated colonic concentration of TNF-α” value [6] was “decreases”.
With `O=C(O)c1cc(/N=N/c2ccc(S(=O)(=O)Nc3ccccn3)cc2)ccc1O` [sulfasalazine] the “colonic level of GSH” value (GSH) was 14.73 ± 0.49^h, i mmol/mg.
